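Values below derive from 48-hour exposures of cells grown in 96-well plates, with endpoints linearly interpolated between the two concentrations bracketing the appropriate inhibition level. At the TGI there is no net growth.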
Legend:
Assay in all cases: growth of human tumour cells (NCI), 48 h
[1] = tested on: OVCAR-8 ovarian
[2] = tested on: MCF7 breast
[3] = tested on: HCT-116 colon
[4] = tested on: SR leukemia
[5] = tested on: SF-268 CNS
[6] = tested on: TK-10 renal
[7] = tested on: SNB-19 CNS
[8] = tested on: A549 NSCLC
[9] = tested on: PC-3 prostate
[10] = tested on: OVCAR-5 ovarian
[11] = tested on: EKVX NSCLC
[12] = tested on: M14 melanoma
[13] = tested on: HOP-62 NSCLC
[14] = tested on: HT29 colon
[15] = tested on: SN12C renal
[16] = tested on: SK-MEL-5 melanoma
[17] = tested on: NCI/ADR-RES ovarian
[18] = tested on: HL-60(TB) leukemia

| Compound | TGI [1] [µM] | TGI [2] [µM] | TGI [3] [µM] | TGI [4] [µM] | TGI [5] [µM] | TGI [6] [µM] | TGI [7] [µM] | TGI [8] [µM] | TGI [9] [µM] | TGI [10] [µM] | TGI [11] [µM] | TGI [12] [µM] | TGI [13] [µM] | TGI [14] [µM] | TGI [15] [µM] | TGI [16] [µM] | TGI [17] [µM] | TGI [18] [µM] |
| --- | --- | --- | --- | --- | --- | --- | --- | --- | --- | --- | --- | --- | --- | --- | --- | --- | --- | --- |
| N[C@@H]1c2c(Br)sc(Br)c2C(=O)[C@H]1Br | 48.4 | > 100 | 39.9 | > 64.2 | > 100 | > 100 | > 74.6 | > 100 | > 84.8 | > 100 | > 88 | 50.9 | > 93.6 | 53.3 | 58.9 | > 100 | 53.8 | > 24.8 |
| c1ccc(C2C3=C(c4ccccc4CC3)N3c4cc5nc6ccccc6nc5cc4NC34CCCCC24)cc1 (configuration not stated) | > 10 | > 10 | > 10 | 2.05 | > 10 | > 10 | > 10 | > 10 | > 10 | > 10 | > 10 | > 10 | > 10 | > 10 | > 10 | > 10 | > 10 | > 6.29 |
| O=c1cc(CN2CCCCC2)[nH]c2c1ccc1nc(CN3CCCCC3)cc(=O)n12 | > 100 | > 100 | > 100 | > 100 | > 100 | > 100 | > 100 | > 100 | > 100 | > 100 | > 100 | > 100 | > 100 | > 100 | > 100 | > 100 | > 100 | > 100 |
| Cc1ccc(OC2CC(n3cnc4c(=O)[nH]c(Br)nc43)OC2Oc2ccc(C)cc2)cc1 (configuration not stated) | 66.5 | > 100 | > 100 | 51.1 | 58.1 | 49.8 | 49 | 69.7 | 49.8 | 48.2 | 62.8 | 62.1 | 49.5 | 83.4 | 56.5 | 58.7 | 69.2 | 59.2 |
| C=CC[C@H](O)[C@@](NC(=O)OCc1ccccc1)(Sc1ccc(C)cc1)C(F)(F)F | 35.3 | > 100 | 60.5 | 60.9 | 47.9 | > 100 | > 100 | > 100 | > 100 | 75.4 | > 100 | 74.4 | 78.1 | > 100 | 45.8 | > 100 | > 100 | 28.9 |
| Cc1nn(C(=O)c2ccc(Cl)cc2)c2c1C(c1ccccc1)SC(N)=N2 (configuration not stated) | > 10 | > 10 | > 10 | > 10 | > 10 | > 10 | > 10 | > 10 | > 10 | > 10 | > 10 | > 10 | > 10 | > 10 | > 10 | > 10 | > 10 | > 10 |
| CC(C)(C)OC(=O)CCC1NC(=O)[C@@H]2Cc3c([nH]c4ccccc34)C(c3ccccc3)N2C1=O (some centres not stated) | > 100 | > 100 | 42.7 | > 100 | 75.8 | > 100 | > 100 | > 100 | 52.9 | 70.2 | > 100 | 87.2 | 51.2 | 56 | 53.1 | 37.9 | 87.6 | 51.2 |
| NCCSC1(O)C(=O)c2ccccc2-c2ccccc21 (configuration not stated) | 1.16 | 3.64 | 1.04 | 1.88 | 2.91 | 3.26 | 2.86 | 2.91 | 2.56 | 3.34 | 3.11 | 4.25 | 3.22 | 3.8 | 2.76 | 1.34 | 1.4 | 2.55 |
| Cc1ccc2[nH]c3c(C)c4cc[n+](C)cc4c(C)c3c2c1 | 8.97 | > 23.8 | 32.6 | 70.7 | 1.77 | > 96.3 | 2.53 | 4.28 | 7.63 | 77.1 | 10.3 | 28.9 | 3.28 | 41.6 | 1.52 | 8.54 | > 100 | 29.8 |
| [N-]=[N+]=NCC(=O)c1c[nH]c(=O)[nH]c1=O | > 100 | > 100 | > 100 | > 100 | > 100 | > 100 | > 100 | > 100 | > 100 | > 100 | > 100 | > 100 | > 100 | > 100 | > 100 | > 100 | > 100 | > 100 |
| CC(=O)OCC(OC(C)=O)C(OC(C)=O)C(/C=N\Nc1nc2ccccc2c(=O)[nH]1)OC(C)=O (configuration not stated) | > 100 | > 100 | > 100 | > 100 | > 100 | > 100 | > 100 | > 100 | > 100 | > 100 | > 100 | > 100 | > 100 | > 100 | > 100 | > 100 | > 100 | > 100 |
| CCOc1ccc(-n2c(=O)c3nn4c(=O)n(-c5ccc(OCC)cc5)c(=O)c4nn3c2=O)cc1 | > 100 | > 100 | > 100 | > 100 | > 100 | > 100 | > 100 | > 100 | > 100 | > 100 | > 100 | > 100 | > 100 | > 100 | > 100 | > 100 | > 100 | > 100 |
| CNC(=S)N/N=C(\C)c1cc(OC)c(OC)cc1O | > 100 | > 100 | > 100 | > 100 | > 100 | > 100 | > 100 | > 100 | > 100 | > 100 | > 100 | > 100 | > 100 | > 100 | > 100 | > 100 | > 100 | > 100 |
| Cc1ccc([N+](=O)[O-])cc1S(=O)(=O)Nc1ccc(C(=O)/C=C/c2ccccc2)cc1 | 50.2 | 26.8 | 29.3 | 54.7 | 73.2 | > 100 | 39.6 | > 100 | 30.6 | 54.7 | 33.5 | 43.1 | 34.5 | 57.6 | 43.2 | 32.1 | 66.2 | 65.1 |
| Cc1cc(C)c2c(=O)cc(-c3ccccc3)[nH]c2c1 | 46.9 | 22.2 | 15.8 | > 100 | 46.7 | 22.8 | > 100 | 29.1 | > 93.2 | > 92.3 | 42.8 | > 82.4 | 23.7 | 27.1 | > 65.3 | 30.6 | 34.3 | 4.71 |
| CC(=O)OC12c3ccccc3C(c3ccccc31)C1C(=O)N(Nc3ccccc3)C(=O)C12 (configuration not stated) | > 100 | > 100 | > 100 | > 100 | > 100 | > 100 | > 100 | > 100 | > 100 | > 100 | > 100 | > 100 | > 100 | > 100 | > 100 | > 100 | > 100 | > 100 |
| CC(=O)OCc1cc(OC(C)=O)c2cc3c(OC(C)=O)cccc3c(OC(C)=O)c2c1 | 35.4 | 38.9 | > 100 | > 100 | 58.1 | 33 | 50.6 | 30.9 | 38.6 | 46.4 | 34.1 | 55.7 | 39.6 | 43.9 | 32.2 | 23.7 | 43.4 | 47.5 |
| Cc1ccc(NC(=O)C23CC4CC(CC(C4)C2)C3)c(C(=O)NNC(=O)c2ccc(Cl)cc2)c1 | > 100 | 59.7 | > 100 | 30.1 | > 100 | 41.5 | 8.91 | 46 | 69.5 | 61.3 | 68 | > 100 | 49.6 | 72.9 | > 100 | 42.6 | 61.1 | 55.5 |
| CC1(C)CC(=O)c2c(nc3c(ccc4ccccc43)c2-c2ccc(NC(=O)CCCCCCCCC(=O)Nc3ccc(-c4c5c(nc6c4ccc4ccccc46)CC(C)(C)CC5=O)cc3)cc2)C1 | > 100 | > 100 | > 100 | > 100 | > 100 | > 100 | > 100 | > 100 | > 100 | > 100 | > 100 | > 100 | > 100 | > 100 | > 100 | > 100 | > 100 | > 100 |

Reference: PubChem BioAssay (NCI)
